Data set [1] relates to trans-TM transport of phage expressing peptide TMT-3. In words: Inhibitor studies: effect on trans-TM transport of phage expressing peptide TMT-3. As to conditions: 1 h, n = 6 ears; for Effect on trans-TM phage transport: NTHi-infected rats; for Reduction of trans-TM transport: ME contents titered. Type of data set: in vivo, Sprague Dawley rats. The protocol: Figure 5 illustrates the results of inhibitor studies.
The MEs of rats were infected with NTHi as above. 48 h later, the external ears of six anesthetized rats were injected with 50 µl of saline containing 10^10 phage expressing TM-3 peptide and up to four inhibitors. Inhibitors were applied at 5–10 times the published IC50 (see Table 1). For any combination of that affected trans-TM transport, Inhibitors were then tested individually to identify the active agent(s). Inhibitors included bafilomycin A (2 µM), brefeldin A (1 uM), carrageenan (200 mg/ml), chlorpromazine (300 µM), Dynasore (500 µM), Endosidin-2 (1 mM), Exo-1 (200 µM), Filipin (50 µg/ml), genistein (100 µM), N-ethylmaleimide (50 µM), nocodazole (300 µM), PitStop-2 (100 µM), Retro-2 (100 µM) and wortmannin (100 µM). […] Six external ears were injected with 10^9 wild-type (WT) phage without a peptide, as negative controls for phage contamination. After one hour, the external ears were extensive rinsed to remove all phage, the MEs were opened and the contents titered to quantify bacteriophage entry. Six replicates were averaged to get the mean and The standard error was calculated by dividing the standard deviation by the sample size's square root (n = 6).

Data set [2] concerns tympanic membrane (TM). To be noted: purified phage applied to the TM of previously infected rats for one hour; ME contents titered; mean of n = 6; cited from earlier work. The text has this: Table 1 Sequences and ME recovery of trans-TM 12-mer peptide phage identified by two screening methods (data from Kurabi et al.[19]). Each purified phage was applied to the TM of previously infected rats for one hour (n = 6), and the ME contents then tittered and the number of phage particles recovered were averaged (mean of n = 6). Phage recovery was grouped into transport categories, which were | column: Mean recovery from ME (PFUs)

Where [3] appears, read: inhibitor 100 µM with TMT-3 phage.
[4] abbreviates: inhibitor 100 µM with 10^10 TMT-3 phage in 50 µl saline in external ear of NTHi-infected rats (48 h).
The mark [5] stands for this setting: inhibitor 300 µM with TMT-3 phage.

On to `CO/C1=C\C(C)=C\[C@@H](C)[C@@H](O)[C@@H](C)C/C(C)=C/C=C/[C@H](OC)[C@@H]([C@@H](C)[C@@H](O)[C@H](C)[C@@]2(O)C[C@@H](O)[C@H](C)[C@@H](C(C)C)O2)OC1=O` [Bafilomycin], for which the “Effect on trans-TM phage transport” value in data set [1] (inhibitor 2 µM with TMT-3 phage) is on record as “no effect”.

For the compound `O=C(N/N=C/c1ccc(O)c(O)c1)c1cc2ccccc2cc1O` [Dynasore], the “Effect on trans-TM phage transport” value in data set [1] (inhibitor 500 µM with TMT-3 phage) is recorded as “no effect”.

In the case of `COc1cc(/C=N/NC(=O)c2cccc(F)c2)cc(I)c1O` [Endosidin-2], the “Reduction of trans-TM transport” value in data set [1] (inhibitor 1 mM with 10^10 TMT-3 phage in 50 µl saline in external ear of NTHi-infected rats (48 h)) is recorded as ~ 80%. The “Effect on trans-TM phage transport” value in data set [1] (inhibitor 1 mM with TMT-3 phage) is on record as “significantly reduced transport”.

In the case of `COC(=O)c1ccccc1NC(=O)c1ccc(F)cc1` [Exo-1], the “Reduction of trans-TM transport” value in data set [1] (inhibitor 200 µM with 10^10 TMT-3 phage in 50 µl saline in external ear of NTHi-infected rats (48 h)) is 40%. Further, the “Effect on trans-TM phage transport” value in data set [1] (inhibitor 200 µM with TMT-3 phage) is on record as “significantly reduced transport”.

`CCCCC[C@@H](O)[C@H]1C(=O)O[C@H](C)[C@@H](O)/C=C/C=C/C=C/C=C/C=C(\C)[C@@H](O)C[C@H](O)C[C@H](O)C[C@H](O)C[C@H](O)C[C@H](O)C[C@@H]1O` [Filipin]: in data set [1] (inhibitor 50 µg/ml with TMT-3 phage), the “Effect on trans-TM phage transport” value was “no effect”.

Consider `CCN1C(=O)C=CC1=O` [N-ethymaleimide], for which the “Effect on trans-TM phage transport” value in data set [1] (inhibitor 50 µM with TMT-3 phage) is listed as “no effect”.

As for `O=C1NC(=NS(=O)(=O)c2cccc3ccccc23)S/C1=C\c1ccc(Br)cc1` [Pitstop-2], the “Effect on trans-TM phage transport” value in data set [1] (setting [3]) is reported as “Neither Pitstop-2, as illustrated in Fig. 5, nor chlorpromazine had any effect”.

Regarding `Cc1ccc(C=Nc2ccccc2C(=O)Nc2ccccc2)s1` [Retro-2], the “Reduction of trans-TM transport” value in data set [1] (setting [4]) was “approximately 90%”. In addition, the “Effect on trans-TM phage transport” value in data set [1] (setting [3]) was “significantly reduced transport”.

For the compound `CN(C)CCCN1c2ccccc2Sc2ccc(Cl)cc21` [chlorpromazine], the “Effect on trans-TM phage transport” value in data set [1] (setting [5]) is “Neither Pitstop-2, as illustrated in Fig. 5, nor chlorpromazine had any effect”.

In the case of `O=c1c(-c2ccc(O)cc2)coc2cc(O)cc(O)c12` [genistein], the “Effect on trans-TM phage transport” value in data set [1] (setting [3]) is “no effect”.

On to `COC(=O)Nc1nc2ccc(C(=O)c3cccs3)cc2[nH]1` [nocodazole], for which the “Effect on trans-TM phage transport” value in data set [1] (setting [5]) is reported as “no effect”.

Consider `COC[C@H]1OC(=O)c2coc3c2[C@@]1(C)C1=C(C3=O)[C@@H]2CCC(=O)[C@@]2(C)C[C@H]1OC(C)=O` [wortmannin], for which the “Reduction of trans-TM transport” value in data set [1] (setting [4]) is given as “approximately 90%”. Besides, the “Effect on trans-TM phage transport” value in data set [1] (setting [3]) is “significantly reduced transport”.

For the compound “ALWPPNLHAWVP [BPT-2, trans-TM 12-mer peptide expressed on M13 bacteriophage, fused through the C-terminus to the pIII protein]”, in data set [2], the “Mean recovery from ME (PFUs)” value is 210 PFUs.

As for “DVGAGRWFSDNG [TMT-4, trans-TM 12-mer peptide expressed on M13 bacteriophage, fused through the C-terminus to the pIII protein]”, in data set [2], the “Mean recovery from ME (PFUs)” value is 5430 PFUs.

For “SADSTKTTHLTL [TMT-3, trans-TM 12-mer peptide expressed on M13 bacteriophage, fused through the C-terminus to the pIII protein]”, the “Mean recovery from ME (PFUs)” value in data set [2] was 12,030 PFUs.

Take “SDDSRPIAQFAI [TMT-5, trans-TM 12-mer peptide expressed on M13 bacteriophage, fused through the C-terminus to the pIII protein]”: the “Mean recovery from ME (PFUs)” value in data set [2] is 3017 PFUs.

As for “SPPGKFLESLRS [TMT-1, trans-TM 12-mer peptide expressed on M13 bacteriophage, fused through the C-terminus to the pIII protein]”, in data set [2], the “Mean recovery from ME (PFUs)” value is 610 PFUs.

As to “TFNPPPPQMPST [BPT-4, trans-TM 12-mer peptide expressed on M13 bacteriophage, fused through the C-terminus to the pIII protein]”, the “Mean recovery from ME (PFUs)” value in data set [2] was 9040 PFUs.

In the case of “THPSTKVPGTPA [BPT-3, trans-TM 12-mer peptide expressed on M13 bacteriophage, fused through the C-terminus to the pIII protein]”, the “Mean recovery from ME (PFUs)” value in data set [2] is given as 13,050 PFUs.

As to “TLSPKMPGGGYW [TMT-2, trans-TM 12-mer peptide expressed on M13 bacteriophage, fused through the C-terminus to the pIII protein]”, the “Mean recovery from ME (PFUs)” value in data set [2] is recorded as 3210 PFUs.

For the compound “TPMVERNYNAAD [BPT-1, trans-TM 12-mer peptide expressed on M13 bacteriophage, fused through the C-terminus to the pIII protein]”, in data set [2], the “Mean recovery from ME (PFUs)” value was 95 PFUs.

For the compound carrageenan, the “Effect on trans-TM phage transport” value in data set [1] (inhibitor 200 mg/ml with TMT-3 phage) was “no effect”.

The record behind these values is paper PMC8770641, “A transcytotic transport mechanism across the tympanic membrane” (Scientific Reports, 2022).
